# Measured values published in patent US20250002475A1 (EPICS THERAPEUTICS, priority 2023, published 2025).
# Experiments:
# Kasumi-1 cells = test: Kasumi-1 cellular viability assay (ATP-Lite, 72 h); format: cell-based; settings: Homo sapiens, ATP-Lite luminescence, % viability relative to DMSO
# Method: Kasumi-1 cell line was purchased from ATCC (ATCC® CRL2724™). Cells were isolated from the peripheral blood of a child with acute myeloid leukemia (AML FAB M2) (in 2nd relapse after bone marrow transplantation) in 1989. Most cells are round. Kasumi-1 cells are observed to grow individually or in small clumps in suspension.
# Kasumi-1 cells are cultured in RPMI-1640 (Gibco A10491-01) containing 10% heat-inactivated and 0.22 μm filtered FBS (Gibco 10270-106) at a density of 3E+5 and 3E+6 viable cell/mL following the certificate of analysis.
# (§1) Cellular viability assay: Kasumi-1 cells were plated (50 μL) in 96-well cell culture microplates (PS, F-Bottom black, Cellstar, Greiner 655086) at final concentration of 15000 cells/well. The compounds of the invention were dissolved in DMSO, and a titration curve was generated at 1000× final concentration. Compounds were then diluted 500× in tissue culture medium (RPMI-1640, 10% FBS). Then 50 μl of test compound were added to Kasumi-1 cells in a final DMSO concentration of 0.1%, final volume 100 μl. A gas permeable sealing membrane was applied to the plate to prevent evaporation (Breathe-Easy sealing membrane, Sigma Z380059-1PK) and cells were incubated for 72 h at 37° C., 5% CO2, 80% RH. After 72h of treatment, the plates were taken out of the incubator and left for a few minutes at room temperature. 100 μl of the reconstituted reagent ATP-Lite One Step (Perkin Elmer, 6016739) was added to each well. The plates were shaken for 2 min at 700 rpm and placed in the dark for 10 minutes at room temperature before measurement of luminescence intensity with Envision instrument. The raw data were expressed in RLU. Results were expressed in % of viability relative to DMSO control and an IC50 was calculated based on the concentration-response profile of individual compounds.
# Caov-3 cells = test: Caov-3 cellular viability assay (ATP-Lite, 72 h); format: cell-based; settings: Homo sapiens, ATP-Lite luminescence, % viability relative to DMSO
# Method: Caov-3 cell line was purchased from ATCC (ATCC® HTB-75™). Cells were isolated from the ovary of a ovarian cancer patient.
# Caov-3 cells are cultured in DMEM (ATCC 30-2002) containing 10% heat-inactivated and 0.22 μm filtered FBS (Gibco 10270-106). The cells are seeded at 2.5E+4cell/cm^2 within the recommended subcultivation ratio of 1:3 to 1:6, as stated on the certificate of analysis issues by the provider of the cells.
# as §1, with “assay: Caov-3” for “assay: Kasumi-1”, “of 10000” for “of 15000”, “to Caov-3” for “to Kasumi-1”, “After 72 h” for “After 72h”, “6016739) were” for “6016739) was”
# [1] = target: T1, recombinant METTL3/METTL14 complex (Homo sapiens, UniProt Q86U44); test: METTL3/14 Scintillation Proximity Assay (SPA), RNA methyltransferase activity; format: biochemical; settings: 5.31 nM METTL3/14 complex, 250 nM RNA substrate, 1 μM 3H-SAM, 90 min; for compounds marked * best of the two separated forms
# T1 construct: purchased Active Motif 311970; host or cells: Sf9 cells
# T1 sequence (Q86U44 whole entry): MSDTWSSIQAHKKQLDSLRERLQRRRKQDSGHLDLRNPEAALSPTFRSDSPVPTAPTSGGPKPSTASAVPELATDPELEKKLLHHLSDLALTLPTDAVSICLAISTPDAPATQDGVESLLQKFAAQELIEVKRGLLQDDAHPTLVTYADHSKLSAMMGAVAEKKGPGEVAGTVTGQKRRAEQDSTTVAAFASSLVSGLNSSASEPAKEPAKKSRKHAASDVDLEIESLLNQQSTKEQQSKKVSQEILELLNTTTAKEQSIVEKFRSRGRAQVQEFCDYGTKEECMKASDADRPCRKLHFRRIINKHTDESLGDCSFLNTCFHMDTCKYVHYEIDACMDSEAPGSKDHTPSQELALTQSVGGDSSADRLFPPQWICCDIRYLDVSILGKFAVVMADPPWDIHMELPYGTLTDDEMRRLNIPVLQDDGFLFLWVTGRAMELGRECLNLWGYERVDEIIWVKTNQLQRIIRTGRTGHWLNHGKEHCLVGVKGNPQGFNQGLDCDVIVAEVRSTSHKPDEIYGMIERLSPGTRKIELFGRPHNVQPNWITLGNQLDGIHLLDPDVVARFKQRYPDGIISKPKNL
# T1 sequence (Q9HCE5 whole entry partner): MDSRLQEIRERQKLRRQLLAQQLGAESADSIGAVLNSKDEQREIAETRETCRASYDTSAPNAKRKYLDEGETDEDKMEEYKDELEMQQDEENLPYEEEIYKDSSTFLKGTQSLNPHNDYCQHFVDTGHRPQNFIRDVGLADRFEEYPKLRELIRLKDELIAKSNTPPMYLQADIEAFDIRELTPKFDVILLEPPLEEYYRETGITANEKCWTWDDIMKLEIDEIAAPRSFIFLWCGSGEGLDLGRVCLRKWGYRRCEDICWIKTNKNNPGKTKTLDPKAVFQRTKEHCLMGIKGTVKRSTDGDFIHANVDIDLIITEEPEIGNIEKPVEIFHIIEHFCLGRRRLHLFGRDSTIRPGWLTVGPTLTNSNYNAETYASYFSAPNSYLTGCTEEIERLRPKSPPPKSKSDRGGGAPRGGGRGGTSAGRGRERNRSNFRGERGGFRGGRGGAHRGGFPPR
structure (smiles),measurement,setting,value
"CC(c1cnn(-c2cncc(N(C)C)c2)c1)n1ccc(N2CCC[C@@H](NCC3CCC3)C2)cc1=O (mixture of isomers) [Compound 156, 4-((R)-3-((cyclobutylmethyl)amino)piperidin-1-yl)-1-(1-(1-(5-(dimethylamino)pyridin-3-yl)-1H-pyrazol-4-yl)ethyl)pyridin-2(1H)-one]",IC50,Kasumi-1 cells,≤ 500 nM
same,IC50,Caov-3 cells,≤ 500 nM
same,IC50,[1],≤ 50 nM
"CC(n1cnc(-c2cncc(N3CCCC3)c2)c1)n1ccc(N2CCC[C@@H](NCC3CC3)C2)cc1=O (mixture of isomers) [Compound 252, 4-((R)-3-((cyclopropylmethyl)amino)piperidin-1-yl)-1-(1-(4-(5-(pyrrolidin-1-yl)pyridin-3-yl)-1H-imidazol-1-yl)ethyl)pyridin-2(1H)-one]",IC50,Kasumi-1 cells,≤ 500 nM
same,IC50,Caov-3 cells,≤ 500 nM
same,IC50,[1],≤ 50 nM
"CC(N[C@@H]1CCCN(c2ccc(C3(C(=O)Nc4cc(=O)n5ccccc5n4)COC3)nc2)C1)C1CCC1 (mixture of isomers) [Compound 336, 3-(5-((3R)-3-((1-cyclobutylethyl)amino)piperidin-1-yl)pyridin-2-yl)-N-(4-oxo-4H-pyrido[1,2-a]pyrimidin-2-yl)oxetane-3-carboxamide]",IC50,Kasumi-1 cells,≤ 500 nM
same,IC50,Caov-3 cells,≤ 500 nM
same,IC50,[1],≤ 50 nM
"COc1cc(-c2cn(C(C)c3ccc(N4CCC[C@@H](NCC5CCC5)C4)nn3)nn2)c2cn[nH]c2c1 (single isomer, unassigned) [Compound 037]",IC50,Kasumi-1 cells,≤ 500 nM
same,IC50,Caov-3 cells,≤ 500 nM
same,IC50,[1],≤ 50 nM
"CC(NC(=O)c1cc(=O)n2ccccc2n1)c1ccc(N2CCC[C@@H](NCC3CCC3)C2)nn1 (single isomer, unassigned) [Compound 051]",IC50,Kasumi-1 cells,> 5000 nM
same,IC50,Caov-3 cells,500 to 5000 nM
same,IC50,[1],≤ 50 nM
"COc1cncc(-c2cn(C(C)n3ccc(N4CCC[C@@H](NCC5CCC5)C4)cc3=O)nn2)c1 (single isomer, unassigned) [Compound 055]",IC50,Kasumi-1 cells,≤ 500 nM
same,IC50,Caov-3 cells,≤ 500 nM
same,IC50,[1],≤ 50 nM
"CC(NC(=O)c1cc(=O)n2ccccc2n1)c1ccc(N2CCC[C@@H](NCC3CCC3)C2)cn1 (single isomer, unassigned) [Compound 058]",IC50,Kasumi-1 cells,500 to 5000 nM
same,IC50,Caov-3 cells,500 to 5000 nM
same,IC50,[1],≤ 50 nM
"O=C(NC(c1ccc(N2CCC[C@@H](NCC3CCC3)C2)nn1)C(F)(F)F)c1cc(=O)n2ccccc2n1 (single isomer, unassigned) [Compound 065]",IC50,Kasumi-1 cells,> 5000 nM
same,IC50,Caov-3 cells,500 to 5000 nM
same,IC50,[1],≤ 50 nM
"COc1cncc(-c2cn(C(C)c3ccc(N4CCC[C@@H](NCC5CCC5)C4)nn3)nn2)c1 (single isomer, unassigned) [Compound 066]",IC50,Kasumi-1 cells,500 to 5000 nM
same,IC50,Caov-3 cells,500 to 5000 nM
same,IC50,[1],≤ 50 nM
"COc1cncc(-c2cn(C(C)c3ccc(N4CCC[C@@H](NCC5CCC5)C4)nc3)nn2)c1 (single isomer, unassigned) [Compound 071]",IC50,Kasumi-1 cells,500 to 5000 nM
same,IC50,Caov-3 cells,500 to 5000 nM
same,IC50,[1],≤ 50 nM
"COc1cncc(-c2cn(C(C)c3ccc(N4CCC[C@@H](NCC5CCC5)C4)cn3)nn2)c1 (single isomer, unassigned) [Compound 073]",IC50,Kasumi-1 cells,500 to 5000 nM
same,IC50,Caov-3 cells,500 to 5000 nM
same,IC50,[1],≤ 50 nM
"CCC(NC(=O)c1cc(=O)n2ccccc2n1)c1ccc(N2CCC[C@@H](NCC3CCC3)C2)nn1 (single isomer, unassigned) [Compound 083]",IC50,Kasumi-1 cells,> 5000 nM
same,IC50,Caov-3 cells,500 to 5000 nM
same,IC50,[1],≤ 50 nM
"CCC(c1ccc(N2CCC[C@@H](NCC3CCC3)C2)nn1)n1cc(-c2cncc(OC)c2)nn1 (single isomer, unassigned) [Compound 085]",IC50,Kasumi-1 cells,> 5000 nM
same,IC50,Caov-3 cells,500 to 5000 nM
same,IC50,[1],≤ 50 nM
"CC(n1cc(-c2cc(=O)n3ccccc3n2)nn1)n1ccc(N2CCC[C@@H](NCC3CCC3)C2)cc1=O (single isomer, unassigned) [Compound 088]",IC50,Kasumi-1 cells,500 to 5000 nM
same,IC50,Caov-3 cells,500 to 5000 nM
same,IC50,[1],≤ 50 nM
"CC(n1cc(-c2cccn3cncc23)nn1)n1ccc(N2CCC[C@@H](NCC3CCC3)C2)cc1=O (single isomer, unassigned) [Compound 124]",IC50,Kasumi-1 cells,> 5000 nM
same,IC50,Caov-3 cells,500 to 5000 nM
same,IC50,[1],≤ 50 nM
"COc1cncc(-c2ncn(C(C)n3ccc(N4CCC[C@@H](NCC5CCC5)C4)cc3=O)n2)c1 (single isomer, unassigned) [Compound 135]",IC50,Kasumi-1 cells,500 to 5000 nM
same,IC50,Caov-3 cells,500 to 5000 nM
same,IC50,[1],≤ 50 nM
"COc1cncc(-c2cn(C(C)c3ccc(N4CCC[C@@H](NCC5CCC5)C4)nc3F)nn2)c1 (single isomer, unassigned) [Compound 138]",IC50,Kasumi-1 cells,500 to 5000 nM
same,IC50,Caov-3 cells,500 to 5000 nM
same,IC50,[1],≤ 50 nM
"CC(n1cc(-c2cncc(N(C)C)c2)nn1)n1ccc(N2CCC[C@@H](NCC3CC3)C2)cc1=O (single isomer, unassigned) [Compound 142]",IC50,Kasumi-1 cells,≤ 500 nM
same,IC50,Caov-3 cells,≤ 500 nM
same,IC50,[1],≤ 50 nM
"CC(c1ccc(N2CCC[C@@H](NCC3CCC3)C2)cn1)n1cc(-c2cncc(N(C)C)c2)nn1 (single isomer, unassigned) [Compound 143]",IC50,Kasumi-1 cells,≤ 500 nM
same,IC50,Caov-3 cells,≤ 500 nM
same,IC50,[1],≤ 50 nM
"CCN(C)c1cncc(-c2cn(C(C)n3ccc(N4CCC[C@@H](NCC5CCC5)C4)cc3=O)nn2)c1 (single isomer, unassigned) [Compound 151]",IC50,Kasumi-1 cells,≤ 500 nM
same,IC50,Caov-3 cells,≤ 500 nM
same,IC50,[1],≤ 50 nM
"CC(n1cc(-c2cncc(N3CCN(C)C3=O)c2)nn1)n1ccc(N2CCC[C@@H](NCC3CCC3)C2)cc1=O (single isomer, unassigned) [Compound 153]",IC50,Kasumi-1 cells,> 5000 nM
same,IC50,Caov-3 cells,> 5000 nM
same,IC50,[1],≤ 50 nM
"CC(n1cc(-c2cncc(N(C)CC(F)(F)F)c2)nn1)n1ccc(N2CCC[C@@H](NCC3CCC3)C2)cc1=O (single isomer, unassigned) [Compound 154]",IC50,Kasumi-1 cells,≤ 500 nM
same,IC50,Caov-3 cells,≤ 500 nM
same,IC50,[1],≤ 50 nM
"CC(C)Nc1cncc(-c2cn(C(C)n3ccc(N4CCC[C@@H](NCC5CCC5)C4)cc3=O)nn2)c1 (single isomer, unassigned) [Compound 158]",IC50,Kasumi-1 cells,≤ 500 nM
same,IC50,Caov-3 cells,≤ 500 nM
same,IC50,[1],≤ 50 nM
"CC(n1cc(-c2cncc(N3CCCC3=O)c2)nn1)n1ccc(N2CCC[C@@H](NCC3CCC3)C2)cc1=O (single isomer, unassigned) [Compound 159]",IC50,Kasumi-1 cells,500 to 5000 nM
same,IC50,Caov-3 cells,500 to 5000 nM
same,IC50,[1],≤ 50 nM
"CC(n1cc(-c2cncc(N3CCCC3)c2)nn1)n1ccc(N2CCC[C@@H](NCC3CCC3)C2)cc1=O (single isomer, unassigned) [Compound 160]",IC50,Kasumi-1 cells,≤ 500 nM
same,IC50,Caov-3 cells,≤ 500 nM
same,IC50,[1],≤ 50 nM
"CC(n1cc(-c2cncc(N3CCC3)c2)nn1)n1ccc(N2CCC[C@@H](NCC3CCC3)C2)cc1=O (single isomer, unassigned) [Compound 161]",IC50,Kasumi-1 cells,≤ 500 nM
same,IC50,Caov-3 cells,≤ 500 nM
same,IC50,[1],≤ 50 nM
"CC(n1cnc(-c2cncc(N(C)C)c2)c1)n1ccc(N2CCC[C@@H](NCC3CCC3)C2)cc1=O (single isomer, unassigned) [Compound 166]",IC50,Kasumi-1 cells,≤ 500 nM
same,IC50,Caov-3 cells,≤ 500 nM
same,IC50,[1],≤ 50 nM
"CC(n1cc(-c2cncc(N3CCN(C)CC3)c2)nn1)n1ccc(N2CCC[C@@H](NCC3CCC3)C2)cc1=O (single isomer, unassigned) [Compound 168]",IC50,Kasumi-1 cells,500 to 5000 nM
same,IC50,Caov-3 cells,≤ 500 nM
same,IC50,[1],≤ 50 nM
"CC(c1ccc(N2CCC[C@@H](NCC3CCC3)C2)cn1)c1cnc(-c2cncc(N(C)C)c2)s1 (single isomer, unassigned) [Compound 169]",IC50,Kasumi-1 cells,≤ 500 nM
same,IC50,Caov-3 cells,≤ 500 nM
same,IC50,[1],≤ 50 nM
